Assay [1] concerns the target T1, NT of rat IP3R1 with L60E mutation (Rattus norvegicus, UniProt P29994, DEL318-332/L60E).
T1 construct: The NT (residues 1–604) and IBC (residues 224–604) of rat IP3R1; His6 (N, cleaved yes); made in house; host or cells: Escherichia coli BL21(DE3)
Kind of assay: [3H]IP3 equilibrium-competition binding to NT L60E. Conditions: 100 μM peptide, [3H]IP3 1.5 nM. An excerpt: (§1) The NT (residues 1–604) and IBC (residues 224–604) of rat IP3R1 were amplified by PCR from the full-length receptor clone lacking the SI splice region (GenBank® accession number GQ233032.1) as described previously. The fragments were ligated into pTrcHis A (Invitrogen) to allow expression of N-terminally His6-tagged proteins. Mutagenesis of the 1-8-14 motif within the NT used the QuikChange® II XL site-directed mutagenesis kit (Stratagene) for single mutants (F53E, L60E, Y66E and K52E) and the QuikChange® multi-site-directed mutagenesis kit for the double mutant (F53E and Y66E). The primers used are listed in Supplementary Table S2 (at http://www.BiochemJ.org/bj/449/bj4490039add.htm). The same primers and conditions were used for mutagenesis of full-length IP3R using IP3R1 in the pENTR 1A vector. Full-length constructs were subcloned into pcDNA3.2/V5-DEST for expression in DT40 cells. The complete sequence of every mutant construct was verified by sequencing.
(§2) The pTrcHis constructs were used for expression of N-terminally His6-tagged proteins in Escherichia coli strain BL21(DE3) cells. Before use for [^3H]IP3 binding, proteins were cleaved from the His6 tags using biotinylated thrombin (Novagen) at the engineered thrombin-cleavage site. Complete cleavage was verified by Western blotting using an anti-His6 antibody. The proteins were used for [^3H]IP3 binding without further purification.
(§3) Equilibrium-competition binding assays were performed at 4°C for 5 min in CLM (500 μl) with a free Ca^2+ concentration of 220 nM and containing [^3H]IP3 (0.75–1.5 nM), bacterial lysate (10 μg of protein for IBC and 100 μg of protein for NT) or cerebellar membranes (50 μg of protein) and competing ligands. Non-specific binding was defined by addition of 10 μM IP3. Bound and free [^3H]IP3 were separated by centrifugation at 20000 g for 5 min, after addition of poly(ethylene glycol) (15% final concentration) and γ-globulin (0.75 mg) for soluble proteins. Results were analysed by fitting to a Hill equation (using GraphPad Prism) from which the IC50 (half-maximal inhibitory concentration) and thereby the Kd (equilibrium dissociation constant) were calculated.

Assay [2] has as its target T2, full-length IP3R (wild-type IP3R1) (Rattus norvegicus, UniProt P29994).
T2 construct: expressed in transfected cells; host or cells: DT40 cells (chicken B cells, all endogenous IP3R genes disrupted) stably expressing rat IP3R1
Description: [3H]IP3 binding to full-length IP3R in permeabilized DT40 cells. Particulars: 100 μM peptide, [3H]IP3 1.5 nM, not increased for L60E or FY mutants.

Assay [3] has as its target T3, NT of rat IP3R1 with F53E mutation (Rattus norvegicus, UniProt P29994, DEL318-332/F53E).
T3 construct: The NT (residues 1–604) and IBC (residues 224–604) of rat IP3R1; His6 (N, cleaved yes); made in house; host or cells: Escherichia coli BL21(DE3)
Kind of assay: [3H]IP3 equilibrium-competition binding to NT F53E. Particulars: 100 μM peptide, [3H]IP3 1.5 nM.
From the text: as §1, §2, §3

Assay [4] has as its target T4, NT of rat IP3R1 with Y66E mutation (Rattus norvegicus, UniProt P29994, DEL318-332/Y66E).
T4 construct: The NT (residues 1–604) and IBC (residues 224–604) of rat IP3R1; His6 (N, cleaved yes); made in house; host or cells: Escherichia coli BL21(DE3)
Description: [3H]IP3 equilibrium-competition binding to NT Y66E. Conditions: 100 μM peptide, [3H]IP3 1.5 nM.
From the text: as §1, §2, §3

Assay [5] concerns the target T5, NT (residues 1–604) of rat IP3R1 (Rattus norvegicus, UniProt P29994, DEL318-332).
T5 construct: The NT (residues 1–604) and IBC (residues 224–604) of rat IP3R1; His6 (N, cleaved yes); made in house; host or cells: Escherichia coli BL21(DE3)
Kind of assay: [3H]IP3 equilibrium-competition binding to NT. Conditions: 100 μM peptide, [3H]IP3 1.5 nM.
From the text: as §1, §2, §3

T5 sequence (P29994 1-589 isoform P29994-2 limits assumed, stated change not applied): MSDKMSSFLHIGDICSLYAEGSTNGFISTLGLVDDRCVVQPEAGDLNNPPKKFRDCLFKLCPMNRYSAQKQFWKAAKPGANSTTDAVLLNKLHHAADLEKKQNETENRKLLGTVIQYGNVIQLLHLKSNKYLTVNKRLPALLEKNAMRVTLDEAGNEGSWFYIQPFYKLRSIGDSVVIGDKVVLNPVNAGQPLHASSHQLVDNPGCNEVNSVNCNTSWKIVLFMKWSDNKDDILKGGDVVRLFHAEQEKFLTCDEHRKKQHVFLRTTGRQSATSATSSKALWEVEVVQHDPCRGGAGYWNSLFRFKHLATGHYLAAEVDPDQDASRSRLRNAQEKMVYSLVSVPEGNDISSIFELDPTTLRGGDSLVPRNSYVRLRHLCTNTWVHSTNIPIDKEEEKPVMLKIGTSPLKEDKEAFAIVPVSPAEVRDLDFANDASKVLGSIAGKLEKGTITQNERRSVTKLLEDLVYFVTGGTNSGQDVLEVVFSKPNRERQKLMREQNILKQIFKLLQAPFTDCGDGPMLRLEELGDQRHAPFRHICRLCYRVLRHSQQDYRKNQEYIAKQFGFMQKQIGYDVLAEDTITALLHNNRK
T1 sequence (P29994 1-589 isoform P29994-2 L60E limits assumed): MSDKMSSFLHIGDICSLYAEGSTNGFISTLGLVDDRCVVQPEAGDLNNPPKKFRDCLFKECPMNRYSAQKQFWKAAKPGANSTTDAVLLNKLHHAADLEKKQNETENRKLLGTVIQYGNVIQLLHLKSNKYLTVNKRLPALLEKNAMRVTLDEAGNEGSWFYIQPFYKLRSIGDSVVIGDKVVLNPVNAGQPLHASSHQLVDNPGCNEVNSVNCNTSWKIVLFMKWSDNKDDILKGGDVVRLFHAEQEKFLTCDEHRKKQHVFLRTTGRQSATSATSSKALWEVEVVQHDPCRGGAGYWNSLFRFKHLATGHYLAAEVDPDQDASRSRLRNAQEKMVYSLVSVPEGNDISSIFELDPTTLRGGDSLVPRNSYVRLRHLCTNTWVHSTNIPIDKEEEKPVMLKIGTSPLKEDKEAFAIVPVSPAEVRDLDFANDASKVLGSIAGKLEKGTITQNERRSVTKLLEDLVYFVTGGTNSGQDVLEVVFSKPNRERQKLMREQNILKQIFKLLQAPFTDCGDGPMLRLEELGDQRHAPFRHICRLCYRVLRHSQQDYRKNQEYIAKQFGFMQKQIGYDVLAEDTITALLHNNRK
T2 sequence (P29994 1-2735 isoform P29994-2): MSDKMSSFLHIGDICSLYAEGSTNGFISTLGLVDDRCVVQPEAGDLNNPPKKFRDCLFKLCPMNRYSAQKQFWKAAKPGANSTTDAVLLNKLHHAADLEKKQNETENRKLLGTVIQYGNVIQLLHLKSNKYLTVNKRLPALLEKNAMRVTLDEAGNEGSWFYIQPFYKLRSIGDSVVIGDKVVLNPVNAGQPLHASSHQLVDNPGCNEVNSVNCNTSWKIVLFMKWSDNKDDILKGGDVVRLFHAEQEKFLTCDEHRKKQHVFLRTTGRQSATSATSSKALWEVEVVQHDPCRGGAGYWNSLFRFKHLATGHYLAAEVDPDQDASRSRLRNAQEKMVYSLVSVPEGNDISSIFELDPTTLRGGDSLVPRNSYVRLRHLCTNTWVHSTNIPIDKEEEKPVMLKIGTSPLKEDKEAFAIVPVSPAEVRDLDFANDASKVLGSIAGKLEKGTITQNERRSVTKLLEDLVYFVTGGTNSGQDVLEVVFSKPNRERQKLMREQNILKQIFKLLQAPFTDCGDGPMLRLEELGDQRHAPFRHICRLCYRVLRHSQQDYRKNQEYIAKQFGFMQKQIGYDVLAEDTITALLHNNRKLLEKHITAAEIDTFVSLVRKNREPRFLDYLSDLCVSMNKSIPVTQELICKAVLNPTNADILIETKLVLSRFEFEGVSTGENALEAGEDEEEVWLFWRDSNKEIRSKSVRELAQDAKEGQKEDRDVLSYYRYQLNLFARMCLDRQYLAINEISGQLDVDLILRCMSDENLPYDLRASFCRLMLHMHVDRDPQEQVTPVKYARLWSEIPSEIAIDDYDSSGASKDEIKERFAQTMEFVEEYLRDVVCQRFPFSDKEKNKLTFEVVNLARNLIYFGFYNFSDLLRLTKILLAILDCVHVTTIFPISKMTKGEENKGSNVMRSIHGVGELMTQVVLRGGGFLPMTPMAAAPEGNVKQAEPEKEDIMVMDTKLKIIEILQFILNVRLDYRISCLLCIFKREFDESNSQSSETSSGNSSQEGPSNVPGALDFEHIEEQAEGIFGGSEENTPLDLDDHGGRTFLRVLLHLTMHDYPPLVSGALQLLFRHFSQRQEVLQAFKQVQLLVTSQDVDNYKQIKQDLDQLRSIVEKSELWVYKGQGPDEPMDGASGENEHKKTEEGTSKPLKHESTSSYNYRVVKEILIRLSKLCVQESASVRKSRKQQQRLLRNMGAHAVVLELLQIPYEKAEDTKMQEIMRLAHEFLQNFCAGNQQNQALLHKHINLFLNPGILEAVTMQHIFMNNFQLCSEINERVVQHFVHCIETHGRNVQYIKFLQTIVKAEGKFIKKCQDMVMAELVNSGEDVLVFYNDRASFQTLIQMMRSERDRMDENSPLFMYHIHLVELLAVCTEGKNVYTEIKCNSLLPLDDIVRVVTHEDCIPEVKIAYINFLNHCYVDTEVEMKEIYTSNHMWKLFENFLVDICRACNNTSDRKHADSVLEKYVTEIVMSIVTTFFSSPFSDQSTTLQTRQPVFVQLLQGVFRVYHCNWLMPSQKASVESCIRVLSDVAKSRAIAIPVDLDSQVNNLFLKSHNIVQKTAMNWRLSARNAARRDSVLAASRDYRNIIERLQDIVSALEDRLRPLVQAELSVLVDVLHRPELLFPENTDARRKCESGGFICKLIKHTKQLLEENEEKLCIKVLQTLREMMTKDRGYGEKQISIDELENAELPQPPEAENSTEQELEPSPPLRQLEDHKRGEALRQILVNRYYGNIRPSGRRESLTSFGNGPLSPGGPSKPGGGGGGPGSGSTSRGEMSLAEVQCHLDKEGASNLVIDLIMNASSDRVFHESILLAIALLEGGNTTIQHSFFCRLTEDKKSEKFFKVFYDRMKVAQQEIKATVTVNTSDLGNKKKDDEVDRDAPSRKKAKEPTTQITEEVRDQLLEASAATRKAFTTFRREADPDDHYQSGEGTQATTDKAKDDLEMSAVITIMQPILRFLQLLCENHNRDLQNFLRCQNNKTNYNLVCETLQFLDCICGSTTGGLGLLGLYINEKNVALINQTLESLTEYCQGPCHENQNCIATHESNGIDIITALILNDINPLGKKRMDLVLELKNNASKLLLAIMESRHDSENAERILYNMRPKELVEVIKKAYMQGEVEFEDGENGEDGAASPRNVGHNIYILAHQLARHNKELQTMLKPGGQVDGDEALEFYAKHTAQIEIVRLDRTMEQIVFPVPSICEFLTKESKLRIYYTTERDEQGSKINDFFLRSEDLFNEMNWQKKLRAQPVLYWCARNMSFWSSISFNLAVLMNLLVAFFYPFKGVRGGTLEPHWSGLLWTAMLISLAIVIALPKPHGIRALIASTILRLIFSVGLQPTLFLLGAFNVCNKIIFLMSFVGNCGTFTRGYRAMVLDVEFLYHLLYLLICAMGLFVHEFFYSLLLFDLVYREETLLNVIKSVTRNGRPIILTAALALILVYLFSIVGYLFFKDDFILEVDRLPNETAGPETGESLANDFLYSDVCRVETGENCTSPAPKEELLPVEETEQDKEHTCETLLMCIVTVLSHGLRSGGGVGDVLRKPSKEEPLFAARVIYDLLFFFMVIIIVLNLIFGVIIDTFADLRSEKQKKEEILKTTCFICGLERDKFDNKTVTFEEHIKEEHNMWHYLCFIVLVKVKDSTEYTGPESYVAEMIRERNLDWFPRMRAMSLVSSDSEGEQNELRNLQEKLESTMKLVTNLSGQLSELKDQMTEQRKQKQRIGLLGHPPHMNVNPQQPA
T4 sequence (P29994 1-589 isoform P29994-2 Y66E limits assumed): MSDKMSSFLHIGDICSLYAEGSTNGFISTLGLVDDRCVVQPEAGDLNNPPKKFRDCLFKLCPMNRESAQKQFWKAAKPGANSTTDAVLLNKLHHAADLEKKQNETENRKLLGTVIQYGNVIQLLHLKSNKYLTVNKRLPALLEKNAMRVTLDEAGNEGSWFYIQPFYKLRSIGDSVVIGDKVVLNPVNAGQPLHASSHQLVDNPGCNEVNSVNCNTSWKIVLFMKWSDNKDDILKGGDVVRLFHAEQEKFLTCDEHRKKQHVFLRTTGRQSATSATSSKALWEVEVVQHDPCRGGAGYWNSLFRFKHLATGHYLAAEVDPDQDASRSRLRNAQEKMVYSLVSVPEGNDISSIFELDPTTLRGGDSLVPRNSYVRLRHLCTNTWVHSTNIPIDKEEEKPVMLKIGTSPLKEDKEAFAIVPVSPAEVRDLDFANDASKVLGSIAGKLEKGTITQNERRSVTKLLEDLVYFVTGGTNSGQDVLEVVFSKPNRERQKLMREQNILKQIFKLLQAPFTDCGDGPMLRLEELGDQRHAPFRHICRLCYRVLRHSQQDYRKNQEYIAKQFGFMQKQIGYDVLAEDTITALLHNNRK
T3 sequence (P29994 1-589 isoform P29994-2 F53E limits assumed): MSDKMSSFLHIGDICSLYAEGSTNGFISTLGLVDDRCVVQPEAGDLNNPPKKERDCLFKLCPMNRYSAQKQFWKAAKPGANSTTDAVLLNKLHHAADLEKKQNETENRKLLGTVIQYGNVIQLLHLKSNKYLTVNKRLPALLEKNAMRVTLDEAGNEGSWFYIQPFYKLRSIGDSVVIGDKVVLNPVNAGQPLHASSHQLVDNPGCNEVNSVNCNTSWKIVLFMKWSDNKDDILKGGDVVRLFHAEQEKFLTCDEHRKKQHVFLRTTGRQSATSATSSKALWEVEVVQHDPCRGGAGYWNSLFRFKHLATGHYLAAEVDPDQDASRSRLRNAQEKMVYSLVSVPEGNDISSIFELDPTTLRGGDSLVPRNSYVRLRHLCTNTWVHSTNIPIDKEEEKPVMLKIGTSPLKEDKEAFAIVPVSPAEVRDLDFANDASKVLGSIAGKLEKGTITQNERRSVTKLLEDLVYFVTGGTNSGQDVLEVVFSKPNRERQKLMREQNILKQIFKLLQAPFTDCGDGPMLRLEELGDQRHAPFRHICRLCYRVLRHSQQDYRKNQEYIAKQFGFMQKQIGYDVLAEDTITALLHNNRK

As to `CC[C@H](C)[C@H](NC(=O)[C@H](C)NC(=O)[C@H](CCCNC(=N)N)NC(=O)[C@@H](NC(=O)[C@H](C)NC(=O)[C@H](Cc1c[nH]cn1)NC(=O)CNC(=O)[C@@H](NC(=O)[C@H](CCCCN)NC(=O)[C@H](CCC(N)=O)NC(=O)[C@H](Cc1c[nH]c2ccccc12)NC(=O)[C@H](CCCCN)NC(=O)[C@H](CCCNC(=N)N)NC(=O)[C@H](CCCNC(=N)N)NC(C)=O)[C@@H](C)O)C(C)C)C(=O)NCC(=O)N[C@@H](CCCNC(=N)N)C(=O)N[C@@H](CC(C)C)C(N)=O` [MLCK peptide, Ac-RRKWQKTGHAVRAIGRL-NH2], the “effect on specific [3H]IP3 binding to NT L60E” value in assay [1] was “neither peptide had any effect”. In assay [2], the “effect on IP3 binding to full-length wild-type IP3R” value was “increased”. Also, in assay [3], the “effect on specific [3H]IP3 binding to NT F53E” value is “neither peptide had any effect”. Moreover, the “effect on specific [3H]IP3 binding to NT Y66E” value in assay [4] is “neither peptide had any effect”. In addition, the “effect on specific [3H]IP3 binding to the NT” value in assay [5] is reported as “increased”.
